In the supplement of paper PMC13380429:

Key:
Conditions in all cases: 72 h
[1] = system: Caco-2; test: relative viability EC50 (midpoint between 100% and the lowest measured viability); higher = less toxic
[2] = system: Vero E6; test: as above
[3] = system: HepG2; test: as above
[4] = system: Calu-3; test: as above
[5] = system: U2OS; test: as above
[6] = system: Caco-2; test: drug sensitivity score (DSS) for viability; higher = more toxic; extreme values may be limits of the assay
[7] = system: Vero E6; test: as above
[8] = system: HepG2; test: as above
[9] = system: Calu-3; test: as above
[10] = system: U2OS; test: as above
[11] = system: Caco-2; test: cell viability relative to DMSO; higher = less toxic
[12] = system: Vero E6; test: as above
[13] = system: HepG2; test: as above
[14] = system: Calu-3; test: as above
[15] = system: U2OS; test: as above

Compound	relative viability EC50 [1]	relative viability EC50 [2]	relative viability EC50 [3]	relative viability EC50 [4]	relative viability EC50 [5]	drug sensitivity score [6]	drug sensitivity score [7]	drug sensitivity score [8]	drug sensitivity score [9]	drug sensitivity score [10]	cell viability ([11]; 1 nM)	cell viability ([11]; 10 nM)	cell viability ([11]; 100 nM)	cell viability ([11]; 1000 nM)	cell viability ([11]; 10000 nM)	cell viability ([12]; 1 nM)	cell viability ([12]; 10 nM)	cell viability ([12]; 100 nM)	cell viability ([12]; 1000 nM)	cell viability ([12]; 10000 nM)	cell viability ([13]; 1 nM)	cell viability ([13]; 10 nM)	cell viability ([13]; 100 nM)	cell viability ([13]; 1000 nM)	cell viability ([13]; 10000 nM)	cell viability ([14]; 1 nM)	cell viability ([14]; 10 nM)	cell viability ([14]; 100 nM)	cell viability ([14]; 1000 nM)	cell viability ([14]; 10000 nM)	cell viability ([15]; 1 nM)	cell viability ([15]; 10 nM)	cell viability ([15]; 100 nM)	cell viability ([15]; 1000 nM)	cell viability ([15]; 10000 nM)
C=C1/C(=C\C=C2/CCC[C@]3(C)[C@@H]([C@H](C)/C=C/[C@H](C)C(C)(C)O)CC[C@@H]23)C[C@@H](O)C[C@@H]1O [ercalcitriol]	> 10 µM	> 10 µM	> 10 µM	> 10 µM	> 10 µM	0	0	0.1	0	0	97.7%	110%	106%	96.4%	94.6%	99%	99.6%	88.5%	98.1%	94.9%	104%	107%	104%	104%	84.7%	106%	99.2%	101%	99%	100%	104%	99.7%	99.4%	95.7%	91.5%
CC(=O)O[C@H]1Cc2ccccc2N(C(N)=O)c2ccccc21 [eslicarbazepine-acetate]	> 10 µM	> 10 µM	> 10 µM	> 10 µM	> 10 µM	0	0	0	0	0	104%	99.9%	91.3%	95.5%	89%	96.9%	99.7%	96.3%	98.9%	98.2%	90.4%	85.9%	95.9%	93.8%	101%	98.9%	98.4%	108%	102%	111%	97.5%	93.6%	95.2%	96.7%	101%
CC(O)(P(=O)(O)O)P(=O)(O)O [etidronic-acid]	> 10 µM	> 10 µM	> 10 µM	> 10 µM	> 10 µM	0	0	0	0	0	103%	91.5%	103%	98.2%	104%	92.7%	91.1%	96.1%	90.1%	95.8%	92.3%	105%	105%	100%	94.6%	93.2%	103%	109%	92.1%	105%	102%	97%	98.6%	103%	102%
O=S1(=O)c2cccc3cccc(c23)N1CCCN1CCN(c2ccc(F)cc2)CC1 [fananserin]	> 10 µM	> 10 µM	> 10 µM	> 10 µM	> 10 µM	0	0	0	0	0	105%	102%	100%	100%	96.7%	96.8%	96.9%	98.1%	91.8%	94.6%	96.4%	106%	107%	94%	95.4%	108%	89.5%	94.2%	111%	104%	101%	102%	100%	103%	99.3%
O=c1c(O)c(-c2ccc(O)c(O)c2)oc2cc(O)ccc12 [fisetin]	> 10 µM	> 10 µM	> 10 µM	> 10 µM	> 10 µM	0	0	0	0.3	0	96.8%	104%	95.3%	96.8%	92.8%	93.3%	97.9%	91.3%	97.1%	103%	95%	111%	104%	107%	105%	93.2%	90.1%	95.3%	101%	83.2%	97.5%	97.6%	102%	94.8%	98%
Cc1c(-c2ccccc2)oc2c(C(=O)OCCN3CCCCC3)cccc2c1=O [flavoxate]	> 10 µM	> 10 µM	> 10 µM	> 10 µM	> 10 µM	0	0	0	0	0	89.1%	91.5%	92.9%	97.1%	108%	98.1%	91.7%	96.2%	94.1%	107%	102%	99.2%	104%	98.3%	96.1%	94.9%	91.9%	91.7%	105%	110%	97.3%	101%	93%	104%	98.8%
C[C@@H]1C[C@H]2[C@@H]3C[C@H](F)C4=CC(=O)C=C[C@]4(C)[C@@]3(F)[C@@H](O)C[C@]2(C)[C@@]1(O)C(=O)COC(=O)C(C)(C)C [flumethasone-pivalate]	> 10 µM	> 10 µM	> 10 µM	> 10 µM	> 10 µM	0.1	0.6	0.3	0	0	121%	103%	122%	94.9%	89%	96.6%	95.3%	101%	96.3%	84.5%	82.4%	100%	87.4%	103%	82.6%	113%	102%	106%	94.3%	100%	106%	102%	102%	97.6%	101%
C[C@@H]1C[C@H]2[C@@H]3C[C@H](F)C4=CC(=O)C=C[C@]4(C)[C@@]3(F)[C@@H](O)C[C@]2(C)[C@@]1(O)C(=O)CO [flumethasone]	> 10 µM	> 10 µM	> 10 µM	> 10 µM	> 10 µM	0	0	0	0	0	84.6%	94.5%	106%	94.1%	103%	107%	105%	97%	105%	101%	96.8%	109%	96.1%	91.2%	91.8%	95.5%	100%	106%	92.2%	101%	96.6%	93.5%	98.1%	92.1%	92.7%
CCCCCCCCCC(=O)OCCN1CCN(CCCN2c3ccccc3Sc3ccc(C(F)(F)F)cc32)CC1 [fluphenazine-decanoate]	> 10 µM	> 10 µM	> 10 µM	> 10 µM	> 10 µM	0	0	0	0	0	111%	84.8%	96.3%	98%	92.1%	104%	105%	96.3%	106%	105%	95.5%	97.4%	96.9%	93.7%	108%	101%	95.8%	98.5%	107%	91.6%	97.2%	100%	99%	100%	96.9%
O=C1NCN(c2ccccc2)C12CCN(CCCC(c1ccc(F)cc1)c1ccc(F)cc1)CC2 [fluspirilene]	> 10 µM	> 10 µM	> 10 µM	> 10 µM	> 10 µM	0	0	1.1	0	0	88.3%	106%	80.5%	116%	99%	115%	98.1%	103%	103%	93.7%	112%	100%	101%	88.5%	84.8%	101%	104%	99.4%	105%	105%	98.4%	103%	98.1%	105%	90.5%
CC(C)=CCC[C@]1(C)C=Cc2c(O)c3c(c(CC=C(C)C)c2O1)O[C@]12C(=C[C@@H]4C[C@H]1C(C)(C)O[C@@]2(C/C=C(/C)C(=O)O)C4=O)C3=O [gambogic-acid]	0.288 µM	0.4 µM	0.51 µM	0.404 µM	0.269 µM	18.5	16.7	15.4	16.6	18.8	90.7%	102%	94.9%	1.9%	-0.1%	105%	104%	106%	6%	-0.3%	97.6%	93.6%	99.3%	15.6%	-0.4%	100%	138%	111%	4.7%	-0.3%	98.8%	102%	94%	-0.1%	-0.3%
